# Source: ChEMBL document CHEMBL3425492, “Dual high-resolution α-glucosidase and radical scavenging profiling combined with HPLC-HRMS-SPE-NMR for identification of minor and major constituents directly from the crude extract of Pueraria lobata” (J Nat Prod, 2015)
# Calls of active or inactive are those of the source. The calls are words filed in the database; no cut-off is given here.
# How the values were obtained:
# [1] = Antioxidant activity of the compound assessed as inhibition of ABTS radicals after 20 mins by spectrophotometric analysis; type: physicochemical
# Saccharomyces cerevisiae = assay: Inhibition of Saccharomyces cerevisiae alpha-glucosidase type 1 assessed as 4-nitrophenol cleavage product by high-resolution biochromatogram
Structure (SMILES),inhibition (INH) [1],Activity (Saccharomyces cerevisiae)
COc1ccc(-c2coc3cc(O)ccc3c2=O)cc1 [FORMONONETIN],Not Active,–
O=C(O)CC(=O)OC[C@H]1O[C@@H](Oc2ccc3c(=O)c(-c4ccc(O)cc4)coc3c2)[C@H](O)[C@@H](O)[C@@H]1O,Not Active,Active
COc1ccc(-c2coc3cc(O[C@@H]4O[C@H](COC(=O)CC(=O)O)[C@@H](O)[C@H](O)[C@H]4O)ccc3c2=O)cc1,Not Active,–
O=c1c(-c2ccc(O)cc2)coc2cc(O)cc(O)c12 [GENISTEIN],Not Active,–
O=Cc1c(-c2ccc(O)cc2O)oc2cc(O)ccc12,Active,–
O=c1c(-c2ccc(O[C@@H]3O[C@H](CO)[C@@H](O)[C@H](O)[C@H]3O)cc2)coc2cc(O)ccc12,Not Active,–
COc1cc(-c2coc3cc(O[C@@H]4O[C@H](COC(=O)CC(=O)O)[C@@H](O)[C@H](O)[C@H]4O)ccc3c2=O)ccc1O,Not Active,–
COc1ccc(C2=CC(=O)O[C@H]2Cc2ccc(O)cc2)c(O[C@@H]2O[C@H](CO)[C@@H](O)[C@H](O)[C@H]2O)c1,Not Active,Active
COc1ccc(-c2coc3cc(O[C@@H]4O[C@H](COC(=O)CC(=O)O)[C@@H](O)[C@H](O)[C@H]4O)cc(O)c3c2=O)cc1,Not Active,–
COc1ccc(-c2coc3cc(O[C@@H]4O[C@H](CO)[C@@H](O)[C@H](O)[C@H]4O)cc(O)c3c2=O)cc1,Not Active,–
O=c1c(-c2ccc(O)cc2)coc2cc(O)ccc12 [DAIDZEIN],Active,Active
COc1cc(-c2coc3cc(O[C@@H]4O[C@H](CO)[C@@H](O)[C@H](O)[C@H]4O)ccc3c2=O)ccc1O,Not Active,–
O=c1c(-c2ccc(O)cc2)coc2cc(O[C@@H]3O[C@H](CO)[C@@H](O)[C@H](O)[C@H]3O)cc(O)c12 [GENISTIN],Not Active,Active
O=c1c(-c2ccc(O)cc2)coc2c([C@@H]3O[C@H](CO)[C@@H](O)[C@H](O)[C@H]3O)c(O)ccc12 [PUERARIN],Not Active,Active
O=C(O)CC(=O)OC[C@H]1O[C@@H](Oc2cc(O)c3c(=O)c(-c4ccc(O)cc4)coc3c2)[C@H](O)[C@@H](O)[C@@H]1O,Not Active,Active
COc1ccc(-c2coc3cc(O[C@@H]4O[C@H](CO)[C@@H](O)[C@H](O)[C@H]4O)ccc3c2=O)cc1 [ONONIN],Not Active,–
O=c1c(-c2ccc(O)cc2)coc2cc(O[C@@H]3O[C@H](CO)[C@@H](O)[C@H](O)[C@H]3O)ccc12 [DAIDZIN],Not Active,Active
